PMC9151520 (Archives of Toxicology, 2022)
Where “and” joins values, the source holds several entries; their conditions need not be identical. Equal values may be shown once. Read-outs that look alike come from different tables or passages of the source.

Key:
[1] = tested on: p53 signaling (p53RE-bla HCT-116 cells); assay: cells; format: cell-based
[2] = tested on: p53 signaling (p53RE-bla HCT-116 cells)
[3] = tested on: p53 signaling (p53RE-bla HCT-116 cells); remark: listed apart in the source
[4] = Homo sapiens, HCT-116, read-out: p53 activation EC50, primary screening
[5] = Homo sapiens, HCT-116, read-out: p53 activation efficacy, primary screening
[6] = read-out: p53 activation EC50, cherry pick confirmation

Compound	p53 activation EC50, cherry pick confirmation [1]	p53 activation efficacy, cherry pick confirmation [1]	EC50 [1, 4] [µM]	Emax [1, 5] [%]	p53 activation EC50, cherry pick confirmation [2]	p53 activation EC50, primary screening [2]	p53 activation efficacy, cherry pick confirmation [2]	p53 activation efficacy, primary screening [2]	p53 activation EC50, cherry pick confirmation [3]	p53 activation EC50, primary screening [3]	p53 activation efficacy, cherry pick confirmation [3]	p53 activation efficacy, primary screening [3]	Viability EC50, cherry pick confirmation (p53RE-bla HCT-116 cells)	Viability EC50, primary screening (p53RE-bla HCT-116 cells)	Viability efficacy, cherry pick confirmation (p53RE-bla HCT-116 cells)	Viability efficacy, primary screening (p53RE-bla HCT-116 cells)	p53 activation efficacy, primary screening [1]	EC50 [3] [µM]	also measured
C[C@H]1CCCC(=O)CCC/C=C/c2cc(O)cc(O)c2C(=O)O1 [Zearalenone]	inactive	inactive	16.8	49.2	inactive	inactive	inactive	inactive	inactive	inactive	inactive	inactive	inactive	inactive	inactive	inactive	–	–	–
CCC(C)(NC(=O)c1cc(Cl)c(C)c(Cl)c1)C(=O)CCl (stereo not shown) [Zoxamide]	–	–	38	50.7	inactive	inactive	inactive	inactive	inactive	inactive	inactive	inactive	inactive	inactive	inactive	inactive	–	–	EC50 ([1]; Homo sapiens, HCT-116, read-out: p53 activation EC50, cherry pick confirmation): 22.3 µM; Emax ([1]; Homo sapiens, HCT-116, read-out: p53 activation efficacy, cherry pick confirmation): 94.8%
Acriflavine hydrochloride	–	281.114	–	–	inactive	inactive	inactive	inactive	inactive	inactive	inactive	inactive	inactive	inactive	inactive	inactive	193.527	–	EC50 [1, 6]: 2.46 µM; EC50 ([1]; read-out: p53 activation EC50, primary screening): 5.41 µM
Chlorpyrifos oxon	–	–	–	–	–	–	–	–	–	–	–	–	–	–	–	–	–	0.02	p53 activation EC50 [1]: inactive; p53 activation efficacy [1]: inactive; p53 activation EC50 [2]: inactive; EC50 ([2]; read-out: p53 activation EC50): 2.91 µM; p53 activation efficacy [3]: 33.1727 and 49.6483; Viability EC50 (p53RE-bla HCT-116 cells): inactive; Viability efficacy (p53RE-bla HCT-116 cells): inactive
Demeton	inactive	inactive	–	–	inactive	–	–	–	–	–	–	–	inactive	inactive	inactive	inactive	inactive	1.91	p53 activation EC50, primary screening [1]: inactive; EC50 [3, 6]: 1.7 µM
